Converted amounts (≈) assume the structure as drawn. Read-outs that look alike come from different tables or passages of the source.
How the values were obtained:
MSSA ATCC 29213 = assay: MIC/MBC determination in LB broth, MSSA; type: cell-based, Staphylococcus aureus; conditions: for MBC/MIC / MBC / MIC: MSSA ATCC 29213
Description: (§1) Normal human lung fibroblasts (MRC-5) were grown in Dulbecco’s modified Eagle’s medium (DMEM) supplemented with 10% calf serum, 100 U/mL penicillin and […] streptomycin in an incubator at 5% CO2 atmosphere and 37 °C. The Gram-positive Staphylococcus aureus (methicillin-sensitive, MSSA ATCC 29213, and methicillin-resistant, MRSA ATCC 43300) and the Gram-negative Escherichia coli (ESBL, extended-spectrum beta-lactamase-positive) bacterial cells were grown in Luria-Bertani broth (LB) at 37 °C under constant shaking at 300 rpm.
(§2) The antibacterial activity was tested on both a methicillin-sensitive and a methicillin-resistant S. aureus strain, and an ESBL E. coli clinical isolate. All the compounds were dissolved at the final concentration of 20 mg/mL in dimethyl sulfoxide (DMSO) and serially diluted in LB. Fresh cell cultures were used at 10^5 cells/mL in a final volume of 2 mL. Each bacterial sample was grown with different compound concentrations that ranged from 100 to 0.1 μg/mL. […] To determine the MBC, the bacteria were then washed three times with LB, centrifuged at 900× g for 10 min at 4 °C, and the pellet resuspended in fresh LB. After overnight incubation at 37 °C, the absence of growth was confirmed by OD measurement. The presence of antibacterial activity, at any concentration tested, was established for values of absorbance < 0.1 OD600. All tests were performed in quadruplicate and for each series of experiments, both positive (no compounds) and negative (no bacteria) controls were included.

E. coli N43 = assay: Broth microdilution MIC, efflux-defective E. coli N43; type: cell-based, Escherichia coli
Description: (§3) We thus tested 1–8 and III initially on the reference sensitive E. coli ATCC 25922 and on the extended-spectrum of beta-lactamase-positive (ESBL) E. coli, as Gram-negative bacteria. Moreover, in order to evaluate the susceptibility of this series of compounds to the efflux pump AcrAB, we employed also the above-mentioned E. coli N43, which is the knockout of the AcrAB cell membrane pump.
(§4) Antibacterial activities of compounds were determined by the broth microdilution method against MDRSA 11.7, MDRSA 12.1 and E. coli N43 following the European Committee on Antimicrobial Susceptibility Testing (EUCAST) recommendations and Clinical and Laboratory Standards Institute (CLSI) guidelines. Strains MDRSA ST-11.7 and ST-12.1 were obtained through the interlaboratory control organized by the EU Reference Laboratory—Antimicrobial Resistance. Only data on their resistance to antibiotics are known, but other data are not available.
(§5) Bacterial suspension of specific bacterial strain equivalent to 0.5 McFarland turbidity standard was diluted with cation-adjusted Mueller Hinton broth with TES (Thermo Fisher Scientific), to obtain a final inoculum of 10^5 CFU/mL. Compounds dissolved in DMSO and inoculum were mixed together and incubated for 20 h at 37 °C. After incubation, the minimal inhibitory concentration (MIC) values were determined by visual inspection as the lowest dilution of compounds showing no turbidity. Tetracycline was used as a positive control on every assay plate.

E. coli ATCC 25922 = assay: MIC on reference sensitive E. coli; type: cell-based, Escherichia coli
Description: as §3

MDRSA 12.1 = assay: Broth microdilution MIC, MDRSA 12.1; type: cell-based, Staphylococcus aureus
Description: (§6) Antimicrobial activity of 1–8 was evaluated on both Gram-positive (Table 3) and Gram-negative (Table 4) species. As a continuation of our previous studies, considering the Gram-positive S. aureus, we chose a methicillin-sensitive S. aureus (MSSA, ATCC 29213), a methicillin-resistant S. aureus (MRSA, ATCC 43300) and two clinical isolates of S. aureus showing multi-drug resistance (MDRSA).
as §4, §5

ESBL E. coli = assay: MIC in LB broth, ESBL E. coli clinical isolate; type: cell-based, Escherichia coli
Description: as §3, §1, §2

MRSA ATCC 43300 = assay: MIC/MBC determination in LB broth, MRSA; type: cell-based, Staphylococcus aureus
Description: as §1, §2

MDRSA 11.7 = assay: Broth microdilution MIC, MDRSA 11.7; type: cell-based, Staphylococcus aureus
Description: as §6, §4, §5

[1] = test system: Methicillin Sensitive S. aureus; conditions: chromanes ref 22; cited from earlier work
MRC-5 cells = assay: MTT cytotoxicity assay; type: cell-based, human; conditions: MRC-5, concentration reducing cell viability by 90%, 24-h incubation
Description: The compounds showing the most promising activities vs. MRSA were also assessed for their cytotoxicity on human MRC-5 cells. TD90, the concentration (µg/mL) able to reduce by 90% the viability of these cells, was determined together with the therapeutic index (TI), expressed as the ratio between TD90 and MBC values.
as §1
Compounds showing an antibacterial activity at a concentration lower than 10 μg/mL were serially diluted in DMEM and tested on MRC-5 cells by the MTT cytotoxicity assay (Sigma, St Louis, MO, USA). Cells (10^4 cells/well) were tested in a 96-well plate, in quadruplicate, using serially two-fold-diluted concentrations of the compound in 100 μL DMEM medium. After a 24-h incubation, the compound was removed, and the cells were overlaid with 1 mg/mL MTT in 100 μL serum-free DMEM for 3 h at 37 °C. The MTT solution was then replaced with DMSO for 10 min, and the absorbance was measured at 570 nm. The percentage of cytotoxicity was calculated by the formula [100 − (sample OD/untreated cells OD) × 100]. The compound concentration reducing cell viability by 90% was defined as the TD90 cytotoxic dose. The “therapeutic index” (TI) was also determined and defined as the ratio between TD90 and the MBC values.

S. aureus ATCC 43300 = assay: Transmission electron microscopy of septum formation; type: cell-based, Staphylococcus aureus; conditions: MRSA cultured overnight; 1 at 1 μg/mL, DFNB at 0.25 μg/mL
Description: After having assessed the antimicrobial profile of this class of derivatives, we chose 1 to be further analyzed by transmission electron microscopy (TEM), in order to evaluate any morphological changes in septum formation, as done before as a simple FtsZ target validation assay. We cultured S. aureus ATCC 43300 alone or in the presence of 1 and 2,6-difluorononyloxybenzamide (DFNB) as a reference FtsZ inhibitor (positive control). […] These are the typical effects of the inhibition of FtsZ assembly and consequently of the block of bacterial cell division.
S. aureus ATCC 43300 (10^9 cells/mL) were cultured in the presence of 1 and DFNB (positive control), at the same concentrations used for optical microscopy and, after 16 h incubation at 37 °C, the cells were harvested and processed for transmission electron microscopy, as already described. Untreated S. aureus was used as negative control. After centrifugation at 3100× g for 5 min at room temperature, pelleted bacteria were fixed in 2.5% glutaraldehyde (Polysciences, Warrington, PA) in 0.1 M Na cacodylate buffer, pH 7.4, for 1 h at 4 °C, rinsed twice and post-fixed in Na cacodylate-buffered 1% OsO4 for 1 h at 4 °C. The samples were dehydrated through a series of graded ethanol solutions and propylene oxide and embedded in Poly/Bed 812 resin mixture. […]

[2] = Staphylococcus aureus, read-out: MBC
[3] = Staphylococcus aureus, read-out: MIC
[4] = Escherichia coli, read-out: MIC

NC(=O)c1c(F)ccc(OCCCC2COc3ccccc3O2)c1F (centres unmarked) [Compound 8]
MBC/MIC (MSSA ATCC 29213): 10
MBC (MSSA ATCC 29213; [2]): 100 µg/mL (≈ 286 µM)
MIC (MSSA ATCC 29213; [3]): 10 µg/mL (≈ 28.6 µM)
MIC (E. coli N43; Escherichia coli, N43): > 128 µg/mL
MIC (E. coli ATCC 25922; Escherichia coli, ATCC25922): > 100 µg/mL
MIC (MDRSA 12.1; [3]): 16 µg/mL (≈ 45.8 µM)
MIC (ESBL E. coli; [4]): > 100 µg/mL
MBC/MIC (MRSA ATCC 43300): 10
MBC (MRSA ATCC 43300; [2]): 100 µg/mL (≈ 286 µM)
MIC (MRSA ATCC 43300; [3]): 10 µg/mL (≈ 28.6 µM)
MIC (MDRSA 11.7; [3]): 32 µg/mL (≈ 91.6 µM)

NC(=O)c1c(F)ccc(OCC2COc3ccccc3C2)c1F (centres unmarked) [V]
MIC vs. MSSA [1]: 100 µg/mL (≈ 313 µM)

3-(1,4-benzodithiane-2-yl)-2,6-difluorobenzamide [Compound 5]
MBC (MSSA ATCC 29213): 10 µg/mL
MBC/MIC (MSSA ATCC 29213): 2
MIC (MSSA ATCC 29213): 5 µg/mL
MIC (E. coli N43; E. coli N43 (AcrAB knockout)): >128 µg/mL
TD90 (MRC-5 cells): 200 µg/mL
MIC (E. coli ATCC 25922; E. coli ATCC 25922): >100 µg/mL
MIC (MDRSA 12.1): 8 µg/mL
MIC (ESBL E. coli): >100 µg/mL
MBC (MRSA ATCC 43300): 10 µg/mL
MBC/MIC (MRSA ATCC 43300): 2
MIC (MRSA ATCC 43300): 5 µg/mL
MIC (MDRSA 11.7): 8 µg/mL

NC(=O)c1c(F)ccc(OCC2COc3ccccc3S2(=O)=O)c1F (centres unmarked) [Compound 4]
MBC (MSSA ATCC 29213; [2]): > 100 µg/mL
MIC (MSSA ATCC 29213; [3]): > 100 µg/mL
MIC (E. coli ATCC 25922; Escherichia coli, ATCC25922): > 100 µg/mL
MIC (ESBL E. coli; [4]): > 100 µg/mL
MBC (MRSA ATCC 43300; [2]): > 100 µg/mL
MIC (MRSA ATCC 43300; [3]): > 100 µg/mL

NC(=O)c1c(F)ccc(OCC2CCc3ccccc3O2)c1F (centres unmarked) [IV]
MIC vs. MSSA [1]: 5 µg/mL (≈ 15.7 µM)

NC(=O)c1c(F)ccc(OCC2COc3ccccc3O2)c1F (centres unmarked) [III, reference compound]
MBC/MIC (MSSA ATCC 29213): 16
MBC/MIC ratios (MSSA ATCC 29213; S. aureus, as summarised in the text from Table 3): 16
MBC (MSSA ATCC 29213; [2]): 80 µg/mL (≈ 249 µM)
MIC (MSSA ATCC 29213; [3]): 5 µg/mL (≈ 15.6 µM)
MIC (E. coli N43; Escherichia coli, N43): > 128 µg/mL
MIC (E. coli ATCC 25922; Escherichia coli, ATCC25922): > 100 µg/mL
MIC (MDRSA 12.1; [3]): 8 µg/mL (≈ 24.9 µM)
MIC (ESBL E. coli; [4]): > 100 µg/mL
MBC/MIC (MRSA ATCC 43300): 16
MBC (MRSA ATCC 43300; [2]): 80 µg/mL (≈ 249 µM)
MIC (MRSA ATCC 43300; [3]): 5 µg/mL (≈ 15.6 µM)
MIC (MDRSA 11.7; [3]): 16 µg/mL (≈ 49.8 µM)

3-(1,4-benzoxathiane-2-yl)-2,6-difluorobenzamide [Compound 1]
MBC (MSSA ATCC 29213): 1 µg/mL
MBC/MIC (MSSA ATCC 29213): 1
MIC (MSSA ATCC 29213): 1 µg/mL
MIC (E. coli N43; E. coli N43 (AcrAB knockout)): 64 µg/mL
TD90 (MRC-5 cells): >800 µg/mL
MIC (E. coli ATCC 25922; E. coli ATCC 25922): >100 µg/mL
MIC (MDRSA 12.1): 2 µg/mL
MIC (ESBL E. coli): >100 µg/mL
Morphological changes in septum formation (TEM) (S. aureus ATCC 43300): strong alterations in the septum formation and bacterial desegregation
MBC (MRSA ATCC 43300): 1 µg/mL
MBC/MIC (MRSA ATCC 43300): 1
MIC (MRSA ATCC 43300): 1 µg/mL
MIC (MDRSA 11.7): 2 µg/mL

— PMC7235863, “Benzamide Derivatives Targeting the Cell Division Protein FtsZ: Modifications of the Linker and the Benzodioxane Scaffold and Their Effects on Antimicrobial Activity” (Antibiotics, 2020)
